Values joined by “and” are separate entries in the source; they are usually repeats but may differ in a detail not shown here. Equal values may be shown once. Blank lines part the entries; values can stand above or below the compound they belong to.
System: LG0567-F671-PDC multi-cell spheroid viability
Assay: Anticancer human tumor LG0567-F671-PDC patient-derived lung adenocarcinoma cell line growth inhibition [IpAb]
Settings: for viability, T/C: stronger effect = lower value
In short: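 Combinations with ipatasertib or abemaciclib were tested on tumour spheroids holding HUVEC (25%) and MSC (15%) alongside 60% malignant cells. Top concentration was at or near clinical Cmax (10 microM if undefined), descending in half-log steps.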

[1] = curve of first compound, second compound 0.1 µM
[2] = curve of first compound, second compound 0.316 µM
[3] = curve of first compound, second compound 1 µM
[4] = curve of first compound, second compound 3.16 µM
[5] = curve of first compound, second compound 10 µM
[6] = second compound 0.1 µM, first compound 0.0316 µM
[7] = second compound 0.1 µM, first compound 0.1 µM
[8] = second compound 0.316 µM, first compound 0.0316 µM
[9] = second compound 0.316 µM, first compound 0.1 µM
[10] = second compound 1 µM, first compound 0.0316 µM
[11] = second compound 1 µM, first compound 0.1 µM
[12] = second compound 3.16 µM, first compound 0.0316 µM
[13] = second compound 3.16 µM, first compound 0.1 µM
[14] = second compound 10 µM, first compound 0.0316 µM
[15] = second compound 10 µM, first compound 0.1 µM
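Further: viability read after 7 days of drug exposure.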
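Wherever viability, T/C is given: 100% = DMSO vehicle control luminescence.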

SMILES: CC(C)n1nc(-c2ccc3oc(N)nc3c2)c2c(N)ncnc21 + CC(C)NCC(C(=O)N1CCN(c2ncnc3c2C(C)CC3O)CC1)c1ccc(Cl)cc1
IC50 [1]: 80.4 nM
IC50 [2]: > 100 nM
IC50 [3]: > 100 nM
IC50 [4]: 27.1 nM
IC50 [5]: 11.7 nM
viability, T/C (second compound 0.1 µM, first compound 0.000316 µM): 89%
viability, T/C (second compound 0.1 µM, first compound 0.001 µM): 99.4%
viability, T/C (second compound 0.1 µM, first compound 0.00316 µM): 76.8%
viability, T/C (second compound 0.1 µM, first compound 0.01 µM): 65.8%
viability, T/C [6]: 59.1%
viability, T/C [7]: 46.4%
viability, T/C (second compound 0.316 µM, first compound 0.000316 µM): 76%
viability, T/C (second compound 0.316 µM, first compound 0.001 µM): 76%
viability, T/C (second compound 0.316 µM, first compound 0.00316 µM): 87%
viability, T/C (second compound 0.316 µM, first compound 0.01 µM): 66.5%
viability, T/C [8]: 50.4%
viability, T/C [9]: 59.5%
viability, T/C (second compound 1 µM, first compound 0.000316 µM): 70.3%
viability, T/C (second compound 1 µM, first compound 0.001 µM): 81.3%
viability, T/C (second compound 1 µM, first compound 0.00316 µM): 76.6%
viability, T/C (second compound 1 µM, first compound 0.01 µM): 57%
viability, T/C [10]: 57.9%
viability, T/C [11]: 46.4%
viability, T/C (second compound 3.16 µM, first compound 0.000316 µM): 97.2%
viability, T/C (second compound 3.16 µM, first compound 0.001 µM): 71.7%
viability, T/C (second compound 3.16 µM, first compound 0.00316 µM): 73%
viability, T/C (second compound 3.16 µM, first compound 0.01 µM): 62.7%
viability, T/C [12]: 45.5%
viability, T/C [13]: 39.9%
viability, T/C (second compound 10 µM, first compound 0.000316 µM): 72.9%
viability, T/C (second compound 10 µM, first compound 0.001 µM): 72.2%
viability, T/C (second compound 10 µM, first compound 0.00316 µM): 63.9%
viability, T/C (second compound 10 µM, first compound 0.01 µM): 53.8%
viability, T/C [14]: 37%
viability, T/C [15]: 43%

IC50 (curve of compound): 138 nM and 166 nM
SMILES: Cn1nccc1Nc1nccc(-c2ccn(C(CO)c3ccc(Cl)c(F)c3)c(=O)c2)n1 (configuration not stated)
viability, T/C (compound 0.0316 µM): 96.4% and 76.2%
viability, T/C (compound 0.1 µM): 50.8% and 58.4%
viability, T/C (compound 0.316 µM): 45% and 40.1%
viability, T/C (compound 1 µM): 41.1% and 29.3%
viability, T/C (compound 3.16 µM): 33.5% and 35.7%
viability, T/C (compound 10 µM): 36.3% and 34.5%

SMILES: Cn1ncc(Cl)c1-c1cc(C(=O)NC(CN)Cc2cccc(F)c2)sc1Cl (configuration not stated) + CC(C)NCC(C(=O)N1CCN(c2ncnc3c2C(C)CC3O)CC1)c1ccc(Cl)cc1
IC50 [1]: 3220 nM
IC50 [2]: 3410 nM
IC50 [3]: 1910 nM
IC50 [4]: 3020 nM
IC50 [5]: 2390 nM
viability, T/C [6]: 68.7%
viability, T/C [7]: 68.3%
viability, T/C (second compound 0.1 µM, first compound 0.316 µM): 74.8%
viability, T/C (second compound 0.1 µM, first compound 1 µM): 81.1%
viability, T/C (second compound 0.1 µM, first compound 3.16 µM): 50.8%
viability, T/C (second compound 0.1 µM, first compound 10 µM): 0.2%
viability, T/C [8]: 79.6%
viability, T/C [9]: 81.4%
viability, T/C (second compound 0.316 µM, first compound 0.316 µM): 81.8%
viability, T/C (second compound 0.316 µM, first compound 1 µM): 61.7%
viability, T/C (second compound 0.316 µM, first compound 3.16 µM): 58.2%
viability, T/C (second compound 0.316 µM, first compound 10 µM): 0.18%
viability, T/C [10]: 71.1%
viability, T/C [11]: 89.5%
viability, T/C (second compound 1 µM, first compound 0.316 µM): 71.3%
viability, T/C (second compound 1 µM, first compound 1 µM): 67.1%
viability, T/C (second compound 1 µM, first compound 3.16 µM): 37.1%
viability, T/C (second compound 1 µM, first compound 10 µM): 0.16%
viability, T/C [12]: 70%
viability, T/C [13]: 82.5%
viability, T/C (second compound 3.16 µM, first compound 0.316 µM): 76.3%
viability, T/C (second compound 3.16 µM, first compound 1 µM): 51.5%
viability, T/C (second compound 3.16 µM, first compound 3.16 µM): 57%
viability, T/C (second compound 3.16 µM, first compound 10 µM): 0.39%
viability, T/C [14]: 77.5%
viability, T/C [15]: 76.9%
viability, T/C (second compound 10 µM, first compound 0.316 µM): 83.6%
viability, T/C (second compound 10 µM, first compound 1 µM): 60.2%
viability, T/C (second compound 10 µM, first compound 3.16 µM): 46.6%
viability, T/C (second compound 10 µM, first compound 10 µM): 0.19%
